What was measured:
HIV-1 Ba-L = assay: Antiviral activity of additional compounds (Tables 6 and 7); assay type: cell-based; details: Human immunodeficiency virus 1, BAL
Protocol: (§1) HIV human peripheral blood mononuclear cell (PBMC) assays were performed as described previously (Lanier et al., 2010, Antimicrob Agents Chemother 54:2901-2909 and Ptak et al., 2008, Antimicrob Agents Chemother 52:1302-1317). Briefly, fresh PBMCs, seronegative for HIV and hepatitis B virus (HBV), were isolated from blood samples of the screened donors (Biological Specialty Corporation, Colmar, Pa.) by using lymphocyte separation medium (LSM; density, 1.078±0.002 g/ml; Cellgro; Mediatech, Inc.) by following the manufacturer's instructions. Cells were stimulated by incubation in 4 μg/mL phytohemagglutinin (PHA; Sigma) for 48 to 72 h. Mitogenic stimulation was maintained by the addition of 20 U/mL recombinant human interleukin-2 (rhIL-2; R&D Systems, Inc.) to the culture medium. PHA-stimulated PBMCs from at least two donors were pooled, diluted in fresh medium, and added to 96-well plates at 5×10^4 cells/well. Cells were infected (final multiplicity of infection [MOI] of ≅0.1) in the presence of nine different concentrations of test compounds (triplicate wells/concentration) and incubated for 7 days. To determine the level of virus inhibition, cell-free supernatant samples were collected for analysis of reverse transcriptase activity (Buckheit et al., 1991, AIDS Res Hum Retroviruses 7:295-302). Following removal of supernatant samples, compound cytotoxicity was measured by the addition of 3-(4,5-dimethylthiazol-2-yl)-5-(3-carboxymethoxy-phenyl)-2-(4-sulfophenyl)-2H-tetrazolium (MTS; CellTiter 96 reagent; Promega) by following the manufacturer's instructions.

HIV-1 NL4-3 = assay: as above; assay type: cell-based; details: Human immunodeficiency virus 1, NL43
Protocol: as §1

[1] = Compound cytotoxicity in PBMCs (MTS); assay type: cell-based, human; details: human; Tables 6 and 7 study; read-out: TC50
Protocol: as §1

O=C(CNC(=O)COc1ccccc1)NCc1ccc(Cl)cc1 [CMPD-35, N-(4-chlorobenzyl)-2-(2-phenoxyacetamido)acetamide]
> 100 µM: IC50 (HIV-1 Ba-L) | IC90 (HIV-1 Ba-L) | IC50 (HIV-1 NL4-3) | IC90 (HIV-1 NL4-3) | CC50 at 7 days [1]

COc1ccc(CNC(=O)CNC(=O)COc2ccccc2)cc1 [CMPD-36, N-(4-methoxybenzyl)-2-(2-phenoxyacetamido)acetamide]
> 100 µM: IC50 (HIV-1 Ba-L) | IC90 (HIV-1 Ba-L) | IC50 (HIV-1 NL4-3) | IC90 (HIV-1 NL4-3) | CC50 at 7 days [1]

O=C(CNC(=O)COc1ccccc1)NCc1ccc(C(F)(F)F)cc1 [CMPD-37, N-(2-oxo-2-((4-(trifluoromethyl)benzyl)amino)ethyl)-2-phenoxyacetamide]
> 100 µM: IC50 (HIV-1 Ba-L) | IC90 (HIV-1 Ba-L) | IC50 (HIV-1 NL4-3) | IC90 (HIV-1 NL4-3) | CC50 at 7 days [1]

O=C(CNC(=O)COc1ccccc1)NCc1ccccc1 [CMPD-38, N-benzyl-2-(2-phenoxyacetamido)acetamide]
> 100 µM: IC50 (HIV-1 Ba-L) | IC90 (HIV-1 Ba-L) | IC50 (HIV-1 NL4-3) | IC90 (HIV-1 NL4-3) | CC50 at 7 days [1]

O=C(CNC(=O)COc1ccccc1)NCc1cccc(Cl)c1 [CMPD-39, N-(3-chlorobenzyl)-2-(2-phenoxyacetamido)acetamide]
> 100 µM: IC50 (HIV-1 Ba-L) | IC90 (HIV-1 Ba-L) | IC50 (HIV-1 NL4-3) | IC90 (HIV-1 NL4-3) | CC50 at 7 days [1]

CN1CCN(C(=O)c2ccc(CNC(=O)CNC(=O)COc3ccccc3)cc2)CC1 [CMPD-40, N-(4-(4-methylpiperazine-1-carbonyl)benzyl)-2-(2-phenoxyacetamido)acetamide]
> 100 µM: IC50 (HIV-1 Ba-L) | IC90 (HIV-1 Ba-L) | IC50 (HIV-1 NL4-3) | IC90 (HIV-1 NL4-3) | CC50 at 7 days [1]

CC(=O)NCC(=O)NCc1ccc(C(=O)N2CCN(C)CC2)cc1 [CMPD-41, 2-acetamido-N-(4-(4-methylpiperazine-1-carbonyl)benzyl)acetamide]
> 100 µM: IC50 (HIV-1 Ba-L) | IC90 (HIV-1 Ba-L) | IC50 (HIV-1 NL4-3) | IC90 (HIV-1 NL4-3) | CC50 at 7 days [1]

CN1CCN(C(=O)c2ccc(CNC(=O)CNC(=O)COc3ccc(Cl)cc3)cc2)CC1 [CMPD-42, 2-(4-chlorophenoxy)-N-(2-((4-(4-methylpiperazine-1-carbonyl)benzyl)amino)-2-oxoethyl)acetamide]
> 100 µM: IC50 (HIV-1 Ba-L) | IC90 (HIV-1 Ba-L) | IC50 (HIV-1 NL4-3) | IC90 (HIV-1 NL4-3) | CC50 at 7 days [1]

COc1ccc(OCC(=O)NCC(=O)NCc2ccc(C(=O)N3CCN(C)CC3)cc2)cc1 [CMPD-43, 2-(4-methoxyphenoxy)-N-(2-((4-(4-methylpiperazine-1-carbonyl)benzyl)amino)-2-oxoethyl)acetamide]
> 100 µM: IC50 (HIV-1 Ba-L) | IC90 (HIV-1 Ba-L) | IC50 (HIV-1 NL4-3) | IC90 (HIV-1 NL4-3) | CC50 at 7 days [1]

CN1CCN(C(=O)c2ccc(CNC(=O)CNC(=O)COc3ccc(C(F)(F)F)cc3)cc2)CC1 [CMPD-44, N-(4-(4-methylpiperazine-1-carbonyl)benzyl)-2-(2-(4-(trifluoromethyl)phenoxy)acetamido)acetamide]
> 100 µM: IC50 (HIV-1 Ba-L) | IC90 (HIV-1 Ba-L) | IC50 (HIV-1 NL4-3) | IC90 (HIV-1 NL4-3) | CC50 at 7 days [1]
